Measured values reported in BindingDB's records for doi:10.1021/cb500177c (University of Bern, 2014).

What was measured:
Cannabinoid receptor 2 = Cannabinoid receptor 2 (Homo sapiens, UniProt P34972); experiment: CB1 & 2 Binding Assays; conditions: pH 7.4; 30 °C
Cannabinoid receptor 1 = Cannabinoid receptor 1 (Homo sapiens, UniProt P21554); experiment: CB1 & 2 Binding Assays; conditions: pH 7.4; 30 °C
[1] = molecular target: T1, Fatty-acid amide hydrolase 1 (Homo sapiens, UniProt O00519); experiment: FAAH Activity Assay; conditions: pH 7.6; 37 °C
T1 sequence (O00519 whole entry): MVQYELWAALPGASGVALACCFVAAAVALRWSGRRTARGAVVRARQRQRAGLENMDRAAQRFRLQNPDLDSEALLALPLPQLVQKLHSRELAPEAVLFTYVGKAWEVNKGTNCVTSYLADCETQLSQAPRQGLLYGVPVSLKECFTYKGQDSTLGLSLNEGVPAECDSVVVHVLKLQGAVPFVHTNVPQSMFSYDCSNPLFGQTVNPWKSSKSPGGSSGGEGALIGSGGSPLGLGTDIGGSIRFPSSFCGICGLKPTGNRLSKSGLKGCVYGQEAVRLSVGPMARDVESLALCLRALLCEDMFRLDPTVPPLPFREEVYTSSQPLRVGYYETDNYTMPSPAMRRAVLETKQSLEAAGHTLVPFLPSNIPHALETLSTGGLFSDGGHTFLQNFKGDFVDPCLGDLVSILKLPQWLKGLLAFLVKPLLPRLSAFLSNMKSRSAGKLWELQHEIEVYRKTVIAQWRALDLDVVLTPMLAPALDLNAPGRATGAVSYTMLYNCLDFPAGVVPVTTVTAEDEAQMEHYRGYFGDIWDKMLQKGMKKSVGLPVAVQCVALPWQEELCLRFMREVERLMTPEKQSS
Experimental: In this assay, 0.05 Units of hFAAH was pre-incubated for 30 min at 37 C with 2 uL of 11a, 11b, 11f at different concentrations (0.01 - 100 uM) or vehicin 196 uL of assay buffer (10 mM Tris-HCl, 1 mM EDTA (pH 7.6) and 0.1% w/v fatty acid-free BSA). 2 uL of AEA/[3H]-AEA mixture was added to the solution (final concenttion in assay was 10 nM) and incubated for 15 min at 37 C.

Cannabinoid receptor 2, sequence (P34972 whole entry): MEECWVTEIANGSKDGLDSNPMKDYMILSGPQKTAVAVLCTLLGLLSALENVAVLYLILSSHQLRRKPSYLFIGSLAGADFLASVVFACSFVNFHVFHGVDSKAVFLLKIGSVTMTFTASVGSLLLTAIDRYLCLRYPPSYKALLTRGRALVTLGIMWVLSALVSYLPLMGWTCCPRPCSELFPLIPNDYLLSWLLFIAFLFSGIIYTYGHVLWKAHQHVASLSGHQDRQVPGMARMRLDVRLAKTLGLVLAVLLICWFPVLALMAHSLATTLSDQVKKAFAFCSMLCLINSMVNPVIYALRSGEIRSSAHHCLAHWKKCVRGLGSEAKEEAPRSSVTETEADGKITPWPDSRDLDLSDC
Cannabinoid receptor 1, sequence (P21554 whole entry): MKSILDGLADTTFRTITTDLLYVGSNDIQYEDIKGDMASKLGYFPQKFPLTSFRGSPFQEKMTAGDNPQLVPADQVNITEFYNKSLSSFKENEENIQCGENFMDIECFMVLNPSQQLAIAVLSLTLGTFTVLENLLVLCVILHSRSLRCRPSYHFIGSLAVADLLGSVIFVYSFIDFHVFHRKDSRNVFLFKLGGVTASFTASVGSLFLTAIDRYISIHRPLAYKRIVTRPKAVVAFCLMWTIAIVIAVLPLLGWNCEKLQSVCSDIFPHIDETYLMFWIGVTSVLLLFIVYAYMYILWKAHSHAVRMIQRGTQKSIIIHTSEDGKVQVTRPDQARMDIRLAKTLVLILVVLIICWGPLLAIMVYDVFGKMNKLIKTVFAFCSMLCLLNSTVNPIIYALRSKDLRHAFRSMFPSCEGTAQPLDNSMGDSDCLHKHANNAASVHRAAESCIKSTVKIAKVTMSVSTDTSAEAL

Structure (SMILES) | Ki (Cannabinoid receptor 2) | Ki (Cannabinoid receptor 1) | IC50 [1]
CCCC(C)(C)c1ccc2c(c1)OC(C)(C)[C@@H]1CC=C(C)C[C@@H]21 | 0.013 µM |  | 
C=C(C)CC[C@@H]1[C@H](C(=C)CC/C=C/C(=O)NCc2ccc(O)c(OC)c2)CC1(C)C [(E)-6-((1R,2R)-3,3-Dimethyl-2-(3-methylbut-3-enyl)cyclobutyl)-N-(4-hydroxy-3-methoxybenzyl)hepta-2,6-dienamide (11e)] | > 10 µM | > 10 µM | 7.1 µM
C=C(C)CC[C@@H]1[C@H](C(=C)CC/C=C/C(=O)NCCC)CC1(C)C [(E)-6-((1R,2R)-3,3-Dimethyl-2-(3-methylbut-3-enyl)cyclobutyl)-N-propylhepta-2,6-dienamide (11a)] | 1.01 µM |  | 6.3 µM
C=C(C)CC[C@@H]1[C@H](C(=C)CC/C=C/C(=O)NCCCl)CC1(C)C [(E)-N-(2-Chloroethyl)-6-((1R,2R)-3,3-dimethyl-2-(3-methylbut-3-enyl)cyclobutyl)hepta-2,6-dienamide (11c)] | 1.43 µM |  | > 10 µM
C=C(C)CC[C@@H]1[C@H](C(=C)CC/C=C/C(=O)NCCc2ccc(O)c(O)c2)CC1(C)C [(E)-N-(3,4-Dihydroxyphenethyl)-6-((1R,2R)-3,3-dimethyl-2-(3-methylbut-3-enyl)cyclobutyl)hepta-2,6-dienamide (11f)] | 6.5 µM | > 10 µM | > 10 µM
C=CCNC(=O)/C=C/CCC(=C)[C@@H]1CC(C)(C)[C@@H]1CCC(=C)C [(E)-N-Allyl-6-((1R,2R)-3,3-dimethyl-2-(3-methylbut-3-enyl)cyclobutyl)hepta-2,6-dienamide (11b)] | 0.68 µM |  | 2.7 µM
C=C1CC/C=C(\C)CC[C@@H]2[C@H]1CC2(C)C [β-humulene] |  | > 10 µM | > 10 µM
